Reference: patent US20060100187A1, “Synergistic combinations of macrolide t-cell modulator or immunosuppressant and a retinoid” (priority 2003, published 2006)

Key:
[1] = system: allogeneic kidney transplantation; details: oral administration; cited from earlier work
[2] = system: DNFB-elicited allergic contact dermatitis (contact hypersensitivity reaction); details: for Efficacy, global mean of differences in scores of untreated and treated test sites: erythema and induration scored 24 hours after DNFB challenge, 80 mg formulation topically at 30 minutes and 6 hours after challenge, 1% Elidel cream, 0.1% Zorac gel; for Efficacy %, single drug treatment with pimecrolimus set to 100%: relative to pimecrolimus/pimecrolimus, topical at 30 minutes and 6 hours after challenge, scored at 24 hours
Method: 12 days before elicitation of ACD, 17 male domestic pigs receive 500 μl of 10% 2,4-dinitrofluorobenzene (DNFB) dissolved in dimethylsulfoxide/acetone/olive oil (1:5:3 v/v/v) epicutaneously in divided volumes onto the base of both ears and onto both groins (100 μl/site) for sensitization. The challenge reaction is elicited with 15 μl of DNFB 1.0% on test sites (7 cm^2 in size) arranged on both sides of the shaved dorsolateral back.
The test sites on the right dorsolateral side are treated with 80 mg formulation twice whereas the left controlateral test sites remain untreated for comparison. The test sites are treated 30 minutes after challenge, followed by the second application at 6 hours of the same drug or, in case of combination, the other drug.

C=CC[C@@H]1/C=C(\C)C[C@H](C)C[C@H](OC)[C@H]2O[C@@](O)(C(=O)C(=O)N3CCCC[C@H]3C(=O)O[C@H](/C(C)=C/[C@@H]3CC[C@@H](O)[C@H](OC)C3)[C@H](C)[C@@H](O)CC1=O)[C@H](C)C[C@@H]2OC [tacrolimus]
minimum effective dose (MED) [1]: 14 mg/kg

CCOC(=O)c1ccc(C#Cc2ccc3c(c2)C(C)(C)CCS3)nc1 [tazarotene]
Efficacy, global mean of differences in scores of untreated and treated test sites [2]: 2.96 | Efficacy %, single drug treatment with pimecrolimus set to 100% [2]: 89%

{[1E-(1R,3R,4S)]}1R,9S,12S, 13R,14S,17R,18E,21S,23S,24R,25S,27R}-12-[2-(4-chloro-3-methoxycyclohexyl)-1-methylvinyl]-17-ethyl-1,14-dihydroxy-23,25-dimethoxy-13,19,21,27-tetramethyl-11, 28,dioxa-4-azatricyclo [22.3.1.0(4,9)]octacos-18-ene-2,3,10,16-tetraone [pimecrolimus]
superiority in comparison with tazarotene/tazarotene treatment ([2]; difference of relative efficacy %): 11% | Efficacy, global mean of differences in scores of untreated and treated test sites [2]: 3.34 | Efficacy %, single drug treatment with pimecrolimus set to 100% [2]: 100% | inhibition of the contact hypersensitivity reaction ([2]; single drug treatment, two topical applications, scored 24 hours after challenge): 57%
